In ChEMBL document CHEMBL3297738, “Anmindenols A and B, inducible nitric oxide synthase inhibitors from a marine-derived Streptomyces sp” (J Nat Prod, 2014) one finds IC50 and Activity data, which are given here for 2 molecules.

Assay type in all cases: functional, cell-based
One test has as its system RAW264.7. Description: Inhibition of LPS-induced nitric oxide production in mouse RAW264.7 cells after 20 hrs by Griess assay. Particulars: RAW264.7, 20 h.
The test system of a further test is PANC-1. Description: Cytotoxicity against human PANC1 cells up to 100 uM.
The subject of another test is MiaPaCa. Description: Cytotoxicity against human MiaPaCa cells up to 100 uM.
The next test deals with A498. Description: Cytotoxicity against human A498 cells up to 100 uM.

Active and inactive are the calls of the source. The rule behind the calls is not given here.

By IC50 is commonly meant the concentration needed to halve the response being measured. Low readings indicate greater potency in that assay, high ones weaker potency in that assay. For `Cc1ccc2c(c1)/C(=C/C(C)C)C[C@]2(O)CO`, the IC50 in the test on RAW264.7 is 19 µM. The outcome in the test on PANC-1, in the test on MiaPaCa and in the test on A498 was inactive.
On to `Cc1ccc2c(c1)/C(=C/C(C)C)C=C2CO`, for which, in the test with RAW264.7, the half-maximal inhibitory concentration (IC50) is 23 µM. Moreover, the outcome with PANC-1, in the test with MiaPaCa and in the test on A498 was inactive.
